Patent US20020054880A1, “Anti-inflammatory, tolerogenic and immunoinhibiting properties of carbohydrate binding-peptides” (priority 1992, published 2002)

What was measured:
[1] = biological target: T1, ACS2P1-biotin binding to fetuin (Bordetella pertussis, UniProt P04978, G45S); settings: saccharide 8 mM; n=3
T1 construct: 2; ACS2P1-b; 9-23; made in house; host or cells: chemical synthesis

[2] = biological target: T2, ACS2P1-biotin binding to fetuin (Bordetella pertussis, UniProt P04978); settings: saccharide 8 mM in PBS; 0.1 μg ACS2P1-biotin; fetuin 3 μg/ml; + enhancement, − inhibition
T2 construct: 2; ACS2P1-b; 9-23; made in house; host or cells: chemical synthesis

[3] = biological target: SPYGRC-biotin binding to fetuin (Bordetella pertussis, UniProt P04978); assay: Inhibition of SPYGRC-biotin binding to fetuin by simple saccharides; settings: saccharide 8 mM in PBS, 0.5 μg SPYGRC-biotin, fetuin 3 μg/ml, + enhancement
Protocol: Binding inhibition assays were done using sialic acid, sialyllactose, lactose, or N-acetyl-glucosamine at a concentration of 8 mM in PBS. […] The pH of free sialic acid was carefully monitored and adjusted to physiological pH values with dilute sodium hydroxide.

[4] = test system: pertussis toxin binding to Chinese Hamster ovary (CHO) cell; assay: CHO cell neutralization of pertussis toxin (cell clumping); type: cell-based; settings: PT 2.4 ng/ml, peptide and PT 1 hour, triplicate
Protocol: Confluent monolayers of CHO cells were lifted from plastic tissue culture flasks with 0.25% trypsin and suspended at a concentration of 5×10^4 cells/ml in Ham's F12 media containing 10% fetal bovine serum (FBS). 100 μl of the cell suspension was added to 96 well tissue culture plates and were allowed to establish contact with the plastic for 24 to 48 hours. The expended media was then removed and filtered-sterilized peptide 5-fold dilutions ranging in concentration from 300 to 30 femptogram per ml (80 μl) in Ham' F12 media containing FBS were added to the CHO cells. […] The incubation mixtures were gently mixed and incubated at 37° C. for 1 hour in a CO2 incubator. The incubation mixtures were then removed and replaced with fresh media. The tissue culture plates were then incubated for 24 hours at 37° C., fixed with 100% methanol, and stained with Geimsa stain. Control experiments were done in the absence of peptide alone or in the absence of PT. All determinations were done in triplicate. […] The results reported in Table VIII show the maximum peptide concentration required to cause a 50% reduction in CHO cell clumping.

[5] = biological target: T3, SNA-biotin binding to fetuin (Bos taurus, UniProt P12763); assay: biochemical
T3 sequence (P12763 19-359): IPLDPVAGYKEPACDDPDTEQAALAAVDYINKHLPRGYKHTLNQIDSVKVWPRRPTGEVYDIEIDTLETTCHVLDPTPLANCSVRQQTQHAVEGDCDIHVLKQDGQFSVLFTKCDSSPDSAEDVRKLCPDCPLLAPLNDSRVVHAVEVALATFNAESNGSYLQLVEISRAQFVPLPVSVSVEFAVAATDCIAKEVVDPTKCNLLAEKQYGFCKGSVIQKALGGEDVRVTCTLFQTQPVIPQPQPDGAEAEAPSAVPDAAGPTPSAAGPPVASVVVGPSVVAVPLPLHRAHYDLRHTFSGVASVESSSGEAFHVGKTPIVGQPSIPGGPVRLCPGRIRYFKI
Protocol: The solution was removed by aspiration and replaced with 100 μl of 1% BSA in PBS containing 0.05% Tween 20 (PBST). After incubation for 2-4 hours at room temperature, the microtiter wells were washed four times with 300 μl of PBST. Peptides ranging in concentration from 0.5 to 4.5 mg/ml in PBS (40 μl) were added to each well and PT-biotin (10 μl containing 10 ng in PBS) was then added to the microtiter wells. After incubating for 1 hour, the binding reaction was stopped by aspirating the solutions and the plate was washed with PBST (300 μl). Horseradish peroxidase-conjugated avidin (100 μl, 1/3000 dilution in PBST to a concentration of 0.3 μg/ml) was then added to the wells, and the plates were incubated at ambient temperature for 1 hour. After washing the wells as described above, the substrate solution [1 mM ABTS in 5 mM citrate buffer, pH 4.2, containing 0.1% hydrogen peroxide, v/v) was added and the plates were incubated for 30 minutes. Color development was recorded at 405 nm using a Titertek Multiskan MC plate reader. Maximum binding was determined in the absence of peptide, and background binding was measured in wells coated with BSA only. Binding assays for each peptide were done in duplicate. Binding inhibition experiments utilizing SNA-, WGA-, and MAL-biotin were performed as described above using 10 ng of each biotinylated lectin in PBS.

[6] = biological target: T4, PT-biotin binding to fetuin (Bos taurus, UniProt P12763); assay: PT-biotin binding to fetuin, binding inhibition assay; design: species or system Bordetella pertussis; settings: peptide mg/mL: S2PL 1.2, ACS2P1 1.0, S2(14-2.3) 1.0, S2P2 1.1, S2P3 0.51, S2P4 0.98, S2P6 0.85, S3P1 3.2, S3P2 3.1, S3P3 4.5, S3P4 3.3, S3P5 0.48, S3P9a 1.7, SPYGRC 4.4, S2(WGA) 1.0, WGA (62-73) 1.0; + enhancement, − inhibition
T4 construct: purchased Sigma Chemical Company (fetuin); Connaught Center for Biotechnology Research (PT)
T4 sequence (P12763 19-359): T3 sequence (P12763 19-359)
Protocol: (§1) Peptides ranging in concentration from 0.5 to 4.5 mg/ml in PBS (40 μl) were added to each well and PT-biotin (10 μl containing 10 ng in PBS) was then added to the microtiter wells. […] Horseradish peroxidase-conjugated avidin (100 μl, 1/3000 dilution in PBST to a concentration of 0.3 μg/ml) was then added to the wells, and the plates were incubated at ambient temperature for 1 hour. […] Color development was recorded at 405 nm using a Titertek Multiskan MC plate reader. […] Binding assays for each peptide were done in duplicate. Binding inhibition experiments utilizing SNA-, WGA-, and MAL-biotin were performed as described above using 10 ng of each biotinylated lectin in PBS.
(§2) Binding assays for each inhibitor concentration were done at least in duplicate, and the average value varied less than 15%.

[7] = test system: Balb/c mice; assay: DTH inflammatory response, mouse footpad swelling assay; type: in vivo; settings: 100 μg peptide into the tail vein 5 hours after challenge with 20 μg OVA; FIG. 2
Protocol: DTH inflammatory responses were measured using the mouse footpad swelling assay as described by Smith and Ziola^64. Briefly, groups of Balb/c mice (about 19-20 grams each) were immunized with 100 μg of the OVA antigen containing 20μg of the adjuvant (DDA—dimethyl-dioctadecylammonium bromide) which also induces a strong inflammatory DTH response. Seven days later, each group of mice was footpad-challenged with 20 μg of the OVA antigen (without adjuvant). The resulting inflammatory footpad swelling was measured with a Mitutoyo Engineering micrometer 24 hours after challenge.
To assess the effect of different peptides on the inflammatory DTH response, groups of mice received 100 μg of the following peptides- ACS2P1 (2275), SPYGRC (2283), and S3P9a. These peptides were injected as a solution into the tail vein, 5 hours after challenge. Control groups were left untreated or received 100 μL of phosphate-buffered saline (PBS).

[8] = biological target: T5, MAL-biotin binding to fetuin (Bos taurus, UniProt P12763); assay: MAL-biotin binding to fetuin, binding inhibition assay; design: species or system Maackia amurensis; settings: peptide mg/mL: S2PL 1.2, ACS2P1 1.0, S2(14-2.3) 1.0, S2P2 1.1, S2P3 0.51, S2P4 0.98, S2P6 0.85, S3P1 3.2, S3P2 3.1, S3P3 4.5, S3P4 3.3, S3P5 0.48, S3P9a 1.7, SPYGRC 4.4, S2(WGA) 1.0, WGA (62-73) 1.0; + enhancement, − inhibition
T5 construct: purchased Sigma Chemical Company (fetuin); Boehringer Mannheim (MAL-biotin)
T5 sequence (P12763 19-359): T3 sequence (P12763 19-359)
Protocol: as §1, §2

[9] = test system: Balb/c mice; assay: Persistence of suppression of DTH response on OVA re-challenge at 2 weeks; type: in vivo; settings: mice treated as in Example 11, re-challenged at 2 weeks; FIG. 3
Excerpt: Identical groups of mice treated with the peptides in Example 11 above, were re-challenged with OVA antigen 2 weeks after primary immunization.

Row | SMILES | inhibition of the binding of biotinylated peptide (ACS2P1-biotin) to fetuin [1] | Percent Changes in Binding Activity ACS2P1-biotin (n = 3) [2] | Percent Changes in Binding Activity SPYGRC-biotin (n = 3) [3] | Maximal Inhibitory Concentration for Greater than 50% Inhibition [4] | IC50 [5] | Percent Changes in Binding Activity SNA/fetuin ([5]; peptide mg/mL: S2PL 1.2, ACS2P1 1.0, S2(14-2.3) 1.0, S2P2 1.1, S2P3 0.51, S2P4 0.98, S2P6 0.85, S3P1 3.2, S3P2 3.1, S3P3 4.5, S3P4 3.3, S3P5 0.48, S3P9a 1.7, SPYGRC 4.4, S2(WGA) 1.0, WGA (62-73) 1.0, + enhancement, − inhibition) | Percent Changes in Binding Activity PT/fetuin [6] | effect on DTH inflammatory response (footpad swelling 24 hours after challenge), in words [7] | Percent Changes in Binding Activity MAL/fetuin [8] | DTH response (footpad swelling) on later re-challenge with OVA antigen, in words [9]
1 | OC[C@H]1O[C@@H](O[C@H]2[C@H](O)[C@@H](O)C(O)O[C@@H]2CO)[C@H](O)[C@@H](O)[C@H]1O (some centres unmarked) [Lactose] | failed to reduce the binding of ACS2P1-biotin | +74 ± 7% | +20 ± 11% | – | – | – | – | – | – | –
2 | CC(=O)N[C@H]1C(O)O[C@H](CO)[C@@H](O)[C@@H]1O (some centres unmarked) [N-Acetylglucosamine] | 10±2% | −10 ± 2% | +6 ± 5% | – | – | – | – | – | – | –
3 | CC(C)C[C@H](NC(=O)[C@H](CC(C)C)NC(=O)[C@@H](N)CCCNC(=N)N)C(=O)N[C@@H](C)C(=O)N[C@@H](CO)C(=O)N[C@H](C(=O)N[C@@H](CC(N)=O)C(=O)N[C@@H](CO)C(=O)N[C@@H](CCCNC(=N)N)C(=O)N[C@@H](CC(C)C)C(=O)N[C@@H](CS)C(=O)N[C@@H](C)C(=O)N[C@H](C(=O)N[C@@H](Cc1ccccc1)C(=O)N[C@H](C(=O)N[C@@H](CCCNC(=N)N)C(=O)N[C@@H](CC(=O)O)C(=O)NCC(=O)O)C(C)C)C(C)C)[C@@H](C)O [Peptide S3P9a] | – | – | – | NI (Not inhibitory at a peptide concentration of 300 ng/ml.) | 2.74 ± 0.86 mM | −41 ± 3% | +328 ± 10% | effective in reducing a DTH response in mice | +18 ± 6% | reduced immune response
4 | CC(=O)N[C@H]1[C@H]([C@H](O)[C@H](O)CO)OC(O)(C(=O)O)C[C@@H]1O (some centres unmarked) [Sialic acid] | – | – | +9 ± 8% | – | – | – | – | – | – | –
